From article PMC12389534, “Unlocking Therapeutic Potential of Novel Thieno-Oxazepine Hybrids as Multi-Target Inhibitors of AChE/BChE and Evaluation Against Alzheimer’s Disease: In Vivo, In Vitro, Histopathological, and Docking Studies” (Pharmaceuticals, 2025)

Tests used:
[1] = tested on: DA; assay: Brain DA level (fluorometric); format: in vivo, rat; details: AlCl3-induced AD rats; for DA (ng/g Tissue): brain tissue, mean ± SE, n = 6
Protocol: (§1) The brain tissues of the rats were removed and rigorously washed in isotonic saline 24 h after they were euthanized following the last behavioral test. For histological investigation, four brains per group were preserved for the whole night in 10% neutral buffered formalin. The remaining six brains were split into two sections each. In order to create a 10% homogenate (w/v), the first component was instantaneously homogenized using an ice-cold solution that included 300 mM sucrose and 50 mM Tris-HCl (pH 7.4). The homogenate was centrifuged at 1800× g for 10 min at 4 °C for biochemical tests, and the supernatant was thereafter kept at −20 °C. The second portion was set aside for use in RT-PCR analysis at −80 °C [94].
Brain monoamine levels were promptly assessed following the rats’ euthanasia to prevent changes in the substance’s concentration. Dopamine (DA), norepinephrine (NE), and serotonin (5-HT) fluorometric tests were conducted on brain tissue homogenate using the Ciarlone method. […] The concentrations were articulated as nanograms per gram of fresh tissue using the fluorescence of reference solutions [95].

[2] = biological target: T1, AChE (Homo sapiens, UniProt P22303); assay: biochemical; details: colorimetric kit, 412 nm
T1 construct: purchased BioVision K197-100
Protocol: All newly created compounds were subjected to an AChE enzyme inhibitory screening. This was performed with the Colorimetric AChE Inhibitor Screening Kit (BioVision Catalog # K197-100). The 96-well assay kit provides a rapid, simple, and reliable way to screen for AChE inhibitors in large quantities. […] A completely transparent 96-well plate with a flat bottom was loaded with 10 µL of test inhibitors that were diluted (20×). […] A measure of 10 μL of diluted AChE was applied to each well that contained compounds, inhibitor control, and solvent control. […] Measures of 25 μL of AChE assay buffer, 5 μL of probe mix, and 10 μL of diluted AChE substrate were mixed to create the reaction mix. The reaction mix was mixed with the compound, enzyme control, and inhibitor control. […] The IC50 was calculated using nonlinear regression analysis using the response–concentration (log) curve.

[3] = tested on: Amyloid-β; assay: Brain amyloid-β level (ELISA); format: in vivo, rat; design: reduction of β-amyloid levels: concentration or dose not given beside the values; details: AlCl3-induced AD rats; for Amyloid-β (ng/g Tissue): brain, mean ± SE, n = 6
Protocol: as §1
(§2) See Supplementary Information.

[4] = tested on: NLRP3; assay: NLRP3 mRNA expression (RT-qPCR); format: in vivo, rat; design: reduction of NLRP3 mRNA expression: concentration or dose not given beside the values; details: AlCl3-induced AD rats; for NLRP3: mRNA expression level, mean ± SE, n = 6
Protocol: as §1, §2

[5] = tested on: BACE1; assay: Brain BACE1 level (ELISA); format: in vivo, rat; design: reduction of BACE1 levels: concentration or dose not given beside the values; details: AlCl3-induced AD rats; for BACE1 (ng/mL): mean ± SE, n = 6
Protocol: as §1, with “[94]. […]” for “[94].”

[6] = tested on: BAX; assay: BAX gene expression (RT-qPCR); format: in vivo, rat; details: AlCl3-induced AD rats; for BAX: gene expression, mean ± SE, n = 6
Protocol: as §1, §2

[7] = biological target: T2, BChE (Homo sapiens, UniProt P06276); assay: biochemical; details: for IC50: fluorescence kit, triplicate; for Selectivity Index BChE/AChE: ratio of IC50 BChE to IC50 AChE, <1 = preferential BChE inhibition
T2 construct: purchased Invitrogen EIABCHEF
Protocol: Using an Invitrogen BChE test kit (Catalog #EIABCHEF), the assay was performed in compliance with the supplier’s instructions. The study was conducted using black 96-well plates. […] Each well was then filled with 50 μL of the reaction mixture, which consisted of fluorescence detection reagent and butyrylthiocholine iodide in assay buffer. The plate was then left to incubate for 20 min at room temperature. Finally, excitation at 390 nm was used to observe emission at 510 nm using a microplate reader. Background fluorescence was further eliminated for each data point.

[8] = tested on: TAC; assay: Brain TAC (colorimetric); format: in vivo, rat; details: AlCl3-induced AD rats; for TAC (µmol/g Tissue): brain tissue, mean ± SE, n = 6
Protocol: as §1
The SOD enzyme activity was estimated using the Marklund et al. method, which is founded on the enzyme’s capacity to decrease the nitro blue tetrazolium dye at a wavelength of 540 nm. To evaluate the TAC, a colorimetric approach was employed to estimate the amount of hydrogen peroxide that remains after 3,5-dichloro-2-hydroxybenzene sulphonate is converted to a colored product at 660 nm.

[9] = tested on: TNF-α; assay: Brain TNF-α level (ELISA); format: in vivo, rat; details: AlCl3-induced AD rats; for TNF-α (pg/g Tissue): mean ± SE, n = 6
Protocol: as §1, with “[94]. […]” for “[94].”

[10] = tested on: MDA; assay: Brain MDA content (thiobarbituric acid method); format: in vivo, rat; design: reduction in MDA brain content: concentration or dose not given beside the values; details: AlCl3-induced AD rats; for MDA (nmol/g Tissue): brain tissue, mean ± SE, n = 6
[11] = tested on: AlCl3-induced AD rat model; assay: Morris water maze (MWM) test in AlCl3-induced AD rats; format: in vivo; details: for Learning (s): escape latency; for Learning (s) / Memory (s): mean ± SE, n = 6; for Memory (s): time spent in target quadrant
Protocol: All procedures were conducted conforming to the applicable National Institutes of Health standards and regulations for the Care and Use of Laboratory Animals. In this experiment, adult male Dawley rats in excellent condition weighing between 300 and 320 g were used. The animals were acquired from the Nile Company for Pharmaceuticals and Chemical Industries (Cairo, Egypt). They were placed in a controlled laboratory setting with unrestricted access to water, a temperature range of 24 to 26 °C, and 12 h a light–dark cycle. Three rats per cage were housed in polycarbonate cages that were individually packed with paper and encased with stainless steel wire.
Spatial learning and memory were inspected using the MWM test. Tap water was poured into a 150 cm diameter by 60 cm high circular water tank until it reached a depth of 30 cm (25 ± 2 °C). To make the water […], non-toxic white dye was applied. The east, west, north, and south quadrants of the pool were essentially separated into four equal sections. At a specific spot in the middle of one quadrant, an escape platform with a diameter of 10 cm was submerged 2 cm below the water’s surface. The platform stood in the exact same quadrant throughout the testing. The rats’ swimming route was recorded by a video camera situated above the pool. From a designated spot in each quadrant, each rat was submerged in the water with its back turned to the pool wall, and it was then left to swim to the platform. The rats received training sessions every day for three days in a row, with four trials conducted in each session. Before the next trial began, the animals were kept a maximum of 60 s to explore the hidden platform. After that, they were permitted to relax on it for 20 s. The rat was positioned gently on the platform and allowed 20 s to rest if it took longer than 60 s to locate it. The time taken to find the platform, or the escape latency, was documented. In order to do a probing test on the fourth day, the platform was detached away, and the rats were given 60 s to swim liberally. The time spent in the assigned quadrant was counted.

T1 sequence (P22303 32-614): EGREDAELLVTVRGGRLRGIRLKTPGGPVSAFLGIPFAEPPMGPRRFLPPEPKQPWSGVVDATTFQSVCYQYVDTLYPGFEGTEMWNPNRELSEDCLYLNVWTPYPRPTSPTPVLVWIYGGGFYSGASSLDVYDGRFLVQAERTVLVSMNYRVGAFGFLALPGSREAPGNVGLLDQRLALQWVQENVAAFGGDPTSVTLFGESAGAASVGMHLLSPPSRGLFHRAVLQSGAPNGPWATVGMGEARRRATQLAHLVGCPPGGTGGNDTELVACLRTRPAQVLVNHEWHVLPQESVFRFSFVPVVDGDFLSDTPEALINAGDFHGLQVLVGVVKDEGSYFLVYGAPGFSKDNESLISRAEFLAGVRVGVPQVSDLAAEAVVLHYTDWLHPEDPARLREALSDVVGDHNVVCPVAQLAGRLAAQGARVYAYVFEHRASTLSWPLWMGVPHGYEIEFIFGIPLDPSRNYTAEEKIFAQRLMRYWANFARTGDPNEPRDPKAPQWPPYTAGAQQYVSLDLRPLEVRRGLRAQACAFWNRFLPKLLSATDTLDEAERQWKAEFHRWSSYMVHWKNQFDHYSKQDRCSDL
T2 sequence (P06276 29-602): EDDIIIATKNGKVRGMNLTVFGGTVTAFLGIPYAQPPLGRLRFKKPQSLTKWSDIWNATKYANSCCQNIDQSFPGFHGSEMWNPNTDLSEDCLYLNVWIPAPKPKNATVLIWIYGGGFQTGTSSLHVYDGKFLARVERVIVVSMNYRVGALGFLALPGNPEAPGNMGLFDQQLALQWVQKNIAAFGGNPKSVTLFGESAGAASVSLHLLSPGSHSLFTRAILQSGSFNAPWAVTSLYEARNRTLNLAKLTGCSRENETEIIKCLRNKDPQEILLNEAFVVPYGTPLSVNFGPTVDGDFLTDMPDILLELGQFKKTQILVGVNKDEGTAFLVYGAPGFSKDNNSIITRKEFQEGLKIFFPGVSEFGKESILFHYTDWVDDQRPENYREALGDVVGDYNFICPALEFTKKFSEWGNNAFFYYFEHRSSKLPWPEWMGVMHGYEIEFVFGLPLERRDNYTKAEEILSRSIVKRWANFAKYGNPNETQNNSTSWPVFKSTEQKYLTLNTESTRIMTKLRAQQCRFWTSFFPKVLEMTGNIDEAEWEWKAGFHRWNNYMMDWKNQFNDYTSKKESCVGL

Row | SMILES | DA (ng/g Tissue) [1] | IC50 [2] | reduction of β-amyloid levels [3] | Amyloid-β (ng/g Tissue) [3] | NLRP3 [4] | reduction of BACE1 levels [5] | BACE1 (ng/mL) [5] | BAX [6] | IC50 [7] | Selectivity Index BChE/AChE [7] | improvement of TAC levels [8] | TAC (µmol/g Tissue) [8] | decline in TNF-α levels [9] | TNF-α (pg/g Tissue) [9] | MDA (nmol/g Tissue) [10] | reduction in escape latency [11] | Learning (s) [11] | Memory (s) [11] | elevation of DA levels [1] | reduction in MDA brain content [10] | other results
1 | CCOC(=O)c1c(O)sc2c1CCCCC2 [Compound 2, Ethyl 2-hydroxy-5,6,7,8-tetrahydro-4H-cyclohepta[b]thiophene-3-carboxylate] | 24.71 ± 1.62 ^abc ng/g Tissue | 1.1 ± 0.04 µM | 30.2% | 19.52 ± 0.15 ^abc ng/g Tissue | 8.29 ± 0.09 ^abc | 20.4% | 23.60 ± 0.2 ^abc ng/mL | 8.13 ± 0.070 ^abc | 5.72 ± 0.2 µM | 5.21 | 1.9 times | 18.26 ± 0.395 ^abc µmol/g Tissue | 31% | 121.4 ± 0.97 ^abc pg/g Tissue | 92.07 ± 0.04 ^abc nmol/g Tissue | 32.2% | 33.33 ± 0.8 ^abc s | 24.17 ± 1.22 ^abc s |  |  | suppression of BAX gene expression [6]: 16%
2 | N#Cc1ccc(N2CC(=O)Oc3sc4c(c3C2=O)CCCCC4)cc1 [Compound 13, 4-(2,5-Dioxo-2,3,7,8,9,10-hexahydro-6H-cyclohepta[4,5]thieno[3,2-f][1,4]oxazepin-4(5H)-yl)benzonitrile] | 48.65 ± 2.3 ^abc ng/g Tissue | 5.04 ± 0.17 µM | 67.6% | 9.04 ± 0.9 ^abc ng/g Tissue | 2.86 ± 0.11 ^abc | 61.7% | 11.35 ± 0.31 ^abc ng/mL | 5.80 ± 0.120 ^abc | 4.22 ± 0.14 µM | 0.84 | ~3.4 times | 32.9 ± 1.22 ^abc µmol/g Tissue | 70.2% | 52.38 ± 0.59 ^abc pg/g Tissue | 52.58 ± 0.08 ^abc nmol/g Tissue | 71.2% | 14.17 ± 0.95 ^abc s | 40.50 ± 2.62 ^abc s | 4.1 fold | 54.7% | reduction of NLRP3 mRNA expression [4]: 73.2%; increase in quadrant residence time [11]: about 4.1 times
3 | O=C1CN(c2ccc(O)cc2)C(=O)c2c(sc3c2CCCCC3)O1 [Compound 15, 4-(4-Hydroxyphenyl)-3,4,7,8,9,10-hexahydro-6H-cyclohepta[4,5]thieno[3,2-f][1,4]oxa-zepine-2,5-dione] | 44.92 ± 2.85 ^abc ng/g Tissue | 1.59 ± 0.06 µM | 73.2% | 7.46 ± 0.9 ^abc ng/g Tissue | 3.36 ± 0.12 ^abc | 64.6% | 10.50 ± 0.2 ^abc ng/mL | 4.47 ± 0.040 ^abc | 0.7 ± 0.02 µM | 0.44 | ~3.3 times | 31.67 ± 0.42 ^abc µmol/g Tissue | 74.6% | 44.6 ± 0.6 ^abc pg/g Tissue | 63.68 ± 0.12 ^abc nmol/g Tissue | 61% | 19.17 ± 1.01 ^abc s | 42.50 ± 1.06 ^abc s | 3.8 fold | 45.2% | reduction of NLRP3 mRNA expression [4]: 68.5%; increase in quadrant residence time [11]: ~4.3 times
4 | CCOC(=O)c1c(OC(=O)CCl)sc2c1CCCCC2 [Compound 4, Ethyl 2-(2-chloroacetoxy)-5,6,7,8-tetrahydro-4H-cyclohepta[b]thiophene-3-carboxylate] | 30.69 ± 1.2 ^abc ng/g Tissue | 41.2 ± 1.42 µM | 38.9% | 17.05 ± 0.2 ^abc ng/g Tissue | 6.30 ± 0.09 ^abc | 26.2% | 21.89 ± 0.27 ^abc ng/mL | 7.42 ± 0.030 ^abc | 56.2 ± 1.93 µM | 1.36 | 2.7 times | 25.87 ± 0.965 ^abc µmol/g Tissue | 35.4% | 113.6 ± 0.83 ^abc pg/g Tissue | 77.14 ± 0.06 ^abc nmol/g Tissue | 35.9% | 31.5 ± 1.48 ^abc s | 26.67 ± 1.54 ^abc s |  | 33.6% | suppression of BAX gene expression [6]: 23.3%
5 | CCOc1ccc(N2CC(=O)Oc3sc4c(c3C2=O)CCCCC4)cc1 [Compound 14, 4-(4-Ethoxyphenyl)-3,4,7,8,9,10-hexahydro-6H-cyclohepta[4,5]thieno[3,2-f][1,4]oxazepine-2,5-dione] | 51.88 ± 2.66 ^abc ng/g Tissue | 0.39 ± 0.01 µM | 58.4% | 11.66 ± 0.17 ^abc ng/g Tissue | 3.92 ± 0.04 ^abc | 43.8% | 16.66 ± 0.38 ^abc ng/mL | 5.49 ± 0.100 ^abc | 2.93 ± 0.1 µM | 7.50 | 3.8 times | 36.96 ± 0.51 ^abc µmol/g Tissue | 58.4% | 73.21 ± 0.58 ^abc pg/g Tissue | 47.6 ± 0.12 ^abc nmol/g Tissue |  | 21 ± 1.13 ^abc s | 29.50 ± 2 ^abc s | 4.3 fold | 59% | reduction of NLRP3 mRNA expression [4]: 63.2%
